The values below are quoted from earlier work in patent US20120040944A1 (APEX LABORATORIES PRIVATE LIMITED, priority 2009, published 2012).

Structures are written as SMILES.

Test in data set [1]: not given
This is another data set of the same source.

In data set [2] the target is T1, CYP3A4 isozyme (Homo sapiens, UniProt P08684).
T1 construct: host or cells: liver
Particulars: liver.

T1 sequence (P08684 whole entry): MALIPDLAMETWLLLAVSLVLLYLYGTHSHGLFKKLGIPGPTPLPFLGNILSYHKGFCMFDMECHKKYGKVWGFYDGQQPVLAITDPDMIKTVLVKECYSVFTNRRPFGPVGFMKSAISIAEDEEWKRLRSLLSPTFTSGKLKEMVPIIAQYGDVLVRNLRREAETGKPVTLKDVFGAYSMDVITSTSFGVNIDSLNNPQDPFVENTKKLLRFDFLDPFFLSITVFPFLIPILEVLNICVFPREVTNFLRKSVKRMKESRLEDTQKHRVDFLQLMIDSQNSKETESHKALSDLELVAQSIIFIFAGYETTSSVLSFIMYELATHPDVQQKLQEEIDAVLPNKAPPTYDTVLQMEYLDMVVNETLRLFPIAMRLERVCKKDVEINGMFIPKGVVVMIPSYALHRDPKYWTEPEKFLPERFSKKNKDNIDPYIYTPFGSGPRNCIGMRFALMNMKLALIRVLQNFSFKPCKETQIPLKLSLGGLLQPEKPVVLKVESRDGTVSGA

Turning to `C[C@@H]1C[C@H]2[C@@H]3CCC4=CC(=O)C=C[C@]4(C)[C@@]3(Cl)[C@@H](O)C[C@]2(C)[C@@]1(OC(=O)c1ccco1)C(=O)CCl` [Mometasone Furoate, 9α,21-dichloro-11β,17-dihydroxy-16α-methylpregna-1,4-diene-3,20-dione 17-(2-furoate)], the “solubility in ethyl alcohol” value (ethyl alcohol) is “moderately soluble”. The solubility in octanol entry (octanol) was “slightly soluble”. In addition, the solubility in water entry (water) is on record as “practically insoluble”. For the same molecule, the “Terminal t½” value in data set [1] (in vivo) is on record as “about 5 h”. Also, the bioavailability entry in data set [1] (inhaled dose compared with IV administration) is listed as “less than 1%”. In data set [1] (up to 7 days), the “Excretion in the feces” value is on record as 74% and the “Excretion in the urine” value was 8%. Moreover, the metabolism entry in data set [2] was “primarily and extensively metabolized in the liver by the CYP3A4 isozyme”.
